The test system of the test is P. falciparum W2. The class given is cell-based. The settings on record: P. falciparum W2 (CQ-resistant), 48 h, n = 3. On the procedure: All conjugates and their respective parent CPP (Table 1), were screened in vitro for their antiplasmodial activity, using the CQ-resistant P. falciparum W2 strain. The primaquine analogue to 5a, i.e., conjugate 3 where the CPP is TP10, PQ-C4-TP10 (3a), was also included in the study for comparison.
Synchronized ring-stage P. falciparum parasites (W2 strain) were incubated with test compounds for 48 h in Roswell Park Memorial Institute (RPMI) 1640 medium containing 10% human serum or 0.5% Albumax serum substitute. Parasites were then fixed with 1% formaldehyde in phosphate-buffered saline (PBS), pH 7.4, for […] at RT and labeled with YOYO-1 (1 nM; molecular probes) in 0.1% Triton X-100 in PBS. Parasitemias were determined by flow cytometry, from dot plots (forward scatter versus fluorescence). For 50% inhibitory concentration (IC50) determinations, dose-response studies were performed, with the values normalized to percent control activity, and IC50s were calculated using GraphPad Prism, with data fitted by nonlinear regression.

Values joined by “and” are separate entries in the source; they are usually repeats but may differ in a detail not shown here. Equal values may be shown once. *1 amine or outer side, *2 acyl side, *3 side chain or, on linkers, in order; H or OH if unused. Where a SMILES comes first, the peptide text is derived from it. The star is where a group is joined. NH(CH2)4NH(7-Cl-4-quinolyl) = Clc1ccc2c(NCCCCN*)ccnc2c1; Suc = O=C(CCC(=O)[*:2])[*:1]

`CC[C@H](C)[C@H](NC(=O)[C@H](CCCCN)NC(=O)[C@H](CCCCN)NC(=O)[C@H](C)NC(=O)[C@H](CC(C)C)NC(=O)[C@H](C)NC(=O)[C@H](C)NC(=O)[C@H](CC(C)C)NC(=O)[C@H](C)NC(=O)[C@H](CCCCN)NC(=O)[C@H](CC(C)C)NC(=O)[C@H](CC(N)=O)NC(=O)[C@@H](NC(=O)[C@H](CCCCN)NC(=O)CNC(=O)[C@H](CC(C)C)NC(=O)[C@H](CC(C)C)NC(=O)[C@H](Cc1ccc(O)cc1)NC(=O)CNC(=O)[C@H](C)NC(=O)[C@H](CO)NC(=O)[C@H](CC(N)=O)NC(=O)[C@H](CC(C)C)NC(=O)[C@@H](NC(=O)[C@H](Cc1c[nH]c2ccccc12)NC(=O)CNC(=O)CCC(=O)NCCCCNc1ccnc2cc(Cl)ccc12)[C@@H](C)O)[C@@H](C)CC)C(=O)N[C@@H](CC(C)C)C(N)=O` [5b] showed an IC50 of 5.2 µM. Under `CC[C@H](C)[C@H](NC(=O)[C@H](CCCCN)NC(=O)[C@@H](NC(=O)[C@H](CCC(=O)O)NC(=O)[C@H](CCCNC(=N)N)NC(=O)[C@H](CCCCN)NC(=O)[C@@H](NC(=O)[C@H](CCCCN)NC(=O)[C@H](CCCCN)NC(=O)[C@H](CCCCN)NC(=O)[C@H](CCCCN)NC(=O)[C@@H](NC(=O)CCC(=O)NCCCCNc1ccnc2cc(Cl)ccc12)C(C)C)[C@@H](C)CC)[C@@H](C)CC)C(N)=O` [5c] ({NH(CH2)4NH(7-Cl-4-quinolyl)-Suc}-VKKKKIKREIKI-NH2) stands over 10 µM; under `CC[C@H](C)[C@H](NC(=O)[C@H](CC(C)C)NC(=O)[C@H](CCCNC(=N)N)NC(=O)[C@H](CCCCN)NC(=O)[C@H](CCC(N)=O)NC(=O)[C@H](CCCNC(=N)N)NC(=O)[C@@H](NC(=O)[C@H](CC(C)C)NC(=O)[C@H](CCCNC(=N)N)NC(=O)[C@H](CCCCN)NC(=O)[C@H](CCC(N)=O)NC(=O)[C@H](CCCNC(=N)N)NC(=O)[C@@H](NC(=O)[C@H](CC(C)C)NC(=O)[C@H](CCCNC(=N)N)NC(=O)[C@H](CCCCN)NC(=O)[C@H](CCC(N)=O)NC(=O)[C@H](CCCNC(=N)N)NC(=O)CCC(=O)NCCCCNc1ccnc2cc(Cl)ccc12)[C@@H](C)CC)[C@@H](C)CC)C(N)=O` [5d] ({NH(CH2)4NH(7-Cl-4-quinolyl)-Suc}-RQKRLIRQKRLIRQKRLI-NH2), over 10 µM. Under `CC[C@H](C)[C@H](NC(=O)[C@H](CCCNC(=N)N)NC(=O)[C@@H](NC(=O)[C@H](C)NC(=O)[C@@H](NC(=O)[C@@H](NC(=O)[C@H](CC(C)C)NC(=O)[C@H](CCCNC(=N)N)NC(=O)[C@@H](NC(=O)CCC(=O)NCCCCNc1ccnc2cc(Cl)ccc12)C(C)C)[C@@H](C)CC)C(C)C)C(C)C)C(=O)N[C@@H](Cc1c[nH]c2ccccc12)C(=O)N[C@@H](CCCNC(=N)N)C(=O)N[C@@H](CCCNC(=N)N)C(N)=O` [5e] ({NH(CH2)4NH(7-Cl-4-quinolyl)-Suc}-VRLIVAVRIWRR-NH2) stands over 10 µM; under `N=C(N)NCCC[C@H](NC(=O)CNC(=O)CCC(=O)NCCCCNc1ccnc2cc(Cl)ccc12)C(=O)N[C@@H](CCCCN)C(=O)N[C@@H](CCCCN)C(=O)N[C@@H](CCCNC(=N)N)C(=O)N[C@@H](CCCNC(=N)N)C(=O)N[C@@H](CCC(N)=O)C(=O)N[C@@H](CCCNC(=N)N)C(=O)N[C@@H](CCCNC(=N)N)C(=O)N[C@@H](CCCNC(=N)N)C(=O)N1CCC[C@H]1C(=O)N1CCC[C@H]1C(=O)N[C@@H](CCC(N)=O)C(N)=O` [5f], over 10 µM; under `CC[C@H](C)[C@H](NC(=O)[C@H](CC(C)C)NC(=O)[C@H](Cc1ccccc1)NC(=O)[C@H](Cc1ccccc1)NC(=O)CCC(=O)NCCCCNc1ccnc2cc(Cl)ccc12)C(=O)N1CCC[C@H]1C(=O)N[C@@H](CCCCN)C(=O)NCC(=O)NCC(=O)N[C@@H](CCCNC(=N)N)C(=O)N[C@@H](CCCCN)C(=O)N[C@@H](CCCCN)C(=O)N[C@@H](CCCNC(=N)N)C(=O)N[C@@H](CCCNC(=N)N)C(=O)N[C@@H](CCC(N)=O)C(=O)N[C@@H](CCCNC(=N)N)C(=O)N[C@@H](CCCNC(=N)N)C(=O)N[C@@H](CCCNC(=N)N)C(=O)N1CCC[C@H]1C(=O)N1CCC[C@H]1C(=O)N[C@@H](CCC(N)=O)C(N)=O` [5g] ({NH(CH2)4NH(7-Cl-4-quinolyl)-Suc}-FFLIPKGGRKKRRQRRRPPQ-NH2), 8.5 µM. As to `N=C(N)NCCC[C@H](NC(=O)[C@H](CCCNC(=N)N)NC(=O)[C@H](CCCNC(=N)N)NC(=O)[C@H](CCCNC(=N)N)NC(=O)[C@H](CCCNC(=N)N)NC(=O)[C@H](CCCNC(=N)N)NC(=O)[C@H](CCCNC(=N)N)NC(=O)[C@H](CCCNC(=N)N)NC(=O)[C@H](CCCNC(=N)N)NC(=O)CCC(=O)NCCCCNc1ccnc2cc(Cl)ccc12)C(N)=O` [5h], the IC50 is over 10 µM. The value for `CC[C@H](C)[C@H](NC(=O)[C@H](CCCCN)NC(=O)[C@@H](NC(=O)[C@H](CCC(N)=O)NC(=O)[C@H](CCCNC(=N)N)NC(=O)CCC(=O)NCCCCNc1ccnc2cc(Cl)ccc12)[C@@H](C)CC)C(=O)N[C@@H](Cc1c[nH]c2ccccc12)C(=O)N[C@@H](Cc1ccccc1)C(=O)N[C@@H](CCC(N)=O)C(=O)N[C@@H](CC(N)=O)C(=O)N[C@@H](CCCNC(=N)N)C(=O)N[C@@H](CCCNC(=N)N)C(=O)N[C@@H](CCSC)C(=O)N[C@@H](CCCCN)C(=O)N[C@@H](Cc1c[nH]c2ccccc12)C(=O)N[C@@H](CCCCN)C(=O)N[C@@H](CCCCN)C(N)=O` [5i] was over 10 µM; that for `CC[C@H](C)[C@H](NC(=O)[C@H](CCCCN)NC(=O)[C@@H](NC(=O)[C@H](CCC(N)=O)NC(=O)[C@@H](N)CCCNC(=N)N)[C@@H](C)CC)C(=O)N[C@@H](Cc1c[nH]c2ccccc12)C(=O)N[C@@H](Cc1ccccc1)C(=O)N[C@@H](CCC(N)=O)C(=O)N[C@@H](CC(N)=O)C(=O)N[C@@H](CCCNC(=N)N)C(=O)N[C@@H](CCCNC(=N)N)C(=O)N[C@@H](CCSC)C(=O)N[C@@H](CCCCN)C(=O)N[C@@H](Cc1c[nH]c2ccccc12)C(=O)N[C@@H](CCCCN)C(=O)N[C@@H](CCCCN)C(N)=O` [Penetratin] was over 10 µM; that for `N=C(N)NCCC[C@H](NC(=O)[C@H](CCCNC(=N)N)NC(=O)[C@H](CCCNC(=N)N)NC(=O)[C@H](CCCNC(=N)N)NC(=O)[C@H](CCCNC(=N)N)NC(=O)[C@H](CCCNC(=N)N)NC(=O)[C@H](CCCNC(=N)N)NC(=O)[C@H](CCCNC(=N)N)NC(=O)[C@@H](N)CCCNC(=N)N)C(N)=O` [R9] was over 10 µM. The value for `N=C(N)NCCC[C@H](NC(=O)CN)C(=O)N[C@@H](CCCCN)C(=O)N[C@@H](CCCCN)C(=O)N[C@@H](CCCNC(=N)N)C(=O)N[C@@H](CCCNC(=N)N)C(=O)N[C@@H](CCC(N)=O)C(=O)N[C@@H](CCCNC(=N)N)C(=O)N[C@@H](CCCNC(=N)N)C(=O)N[C@@H](CCCNC(=N)N)C(=O)N1CCC[C@H]1C(=O)N1CCC[C@H]1C(=O)N[C@@H](CCC(N)=O)C(N)=O` [TAT] was over 10 µM; that for `CC[C@H](C)[C@H](NC(=O)[C@H](CCCCN)NC(=O)[C@H](CCCCN)NC(=O)[C@H](C)NC(=O)[C@H](CC(C)C)NC(=O)[C@H](C)NC(=O)[C@H](C)NC(=O)[C@H](CC(C)C)NC(=O)[C@H](C)NC(=O)[C@H](CCCCN)NC(=O)[C@H](CC(C)C)NC(=O)[C@H](CC(N)=O)NC(=O)[C@@H](NC(=O)[C@H](CCCCN)NC(=O)CNC(=O)[C@H](CC(C)C)NC(=O)[C@H](CC(C)C)NC(=O)[C@H](Cc1ccc(O)cc1)NC(=O)CNC(=O)[C@H](C)NC(=O)[C@H](CO)NC(=O)[C@H](CC(N)=O)NC(=O)[C@H](CC(C)C)NC(=O)[C@@H](NC(=O)[C@H](Cc1c[nH]c2ccccc12)NC(=O)CN)[C@@H](C)O)[C@@H](C)CC)C(=O)N[C@@H](CC(C)C)C(N)=O` [Transportan] was 3.05 µM and 3.1 µM. Turning to H-FFLIPKGGRKKRRQRRRPPQ-NH2 [PasTAT], the IC50 is over 10 µM. Take H-RQKRLIRQKRLIRQKRLI-NH2 [DPT-sh2]: the IC50 was over 10 µM.

(Values after article PMC6943437, “Coupling the Antimalarial Cell Penetrating Peptide TP10 to Classical Antimalarial Drugs Primaquine and Chloroquine Produces Strongly Hemolytic Conjugates” (Molecules, 2019).)
